The text below walks through data of paper PMC8222254, “Self-assembly of an anion receptor with metal-dependent kinase inhibition and potent in vitro anti-cancer properties” (Nature Communications, 2021).

What all share (experiment): Kinase inhibition screen, cell-free 33P ATP assay at 10 μM
What all share (format): biochemical

Test [1] concerns the target T1, 140 purified human kinases (Homo sapiens, UniProt O14757).
T1 sequence (O14757 1-476): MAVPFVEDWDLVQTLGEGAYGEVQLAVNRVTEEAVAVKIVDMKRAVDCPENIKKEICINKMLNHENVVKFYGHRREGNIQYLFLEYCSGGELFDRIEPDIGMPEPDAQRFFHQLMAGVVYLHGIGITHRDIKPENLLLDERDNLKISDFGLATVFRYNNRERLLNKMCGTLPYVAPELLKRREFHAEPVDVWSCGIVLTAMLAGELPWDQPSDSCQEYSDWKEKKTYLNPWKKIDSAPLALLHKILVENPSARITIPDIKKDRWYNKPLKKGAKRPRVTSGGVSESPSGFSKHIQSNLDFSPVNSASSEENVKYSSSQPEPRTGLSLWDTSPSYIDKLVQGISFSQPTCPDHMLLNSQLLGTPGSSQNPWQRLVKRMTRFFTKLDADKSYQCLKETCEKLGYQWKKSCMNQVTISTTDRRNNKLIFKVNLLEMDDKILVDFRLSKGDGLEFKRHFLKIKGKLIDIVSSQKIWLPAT
The essentials: (§1)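 Each complex tested in duplicate at 10 μM; cell-free radiometric assay using ^33P ATP on purified enzymes. Hits mapped by HGNC symbol onto the kinome tree.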

For test [2], the target named is 140 purified human kinases (Homo sapiens, UniProt P24941). The conditions noted are these: CDK2-Cyclin A. The method, boiled down:
as §1

Test [3] addresses T2, 140 purified human kinases (Homo sapiens, UniProt P52333).
T2 sequence (P52333 1-1124): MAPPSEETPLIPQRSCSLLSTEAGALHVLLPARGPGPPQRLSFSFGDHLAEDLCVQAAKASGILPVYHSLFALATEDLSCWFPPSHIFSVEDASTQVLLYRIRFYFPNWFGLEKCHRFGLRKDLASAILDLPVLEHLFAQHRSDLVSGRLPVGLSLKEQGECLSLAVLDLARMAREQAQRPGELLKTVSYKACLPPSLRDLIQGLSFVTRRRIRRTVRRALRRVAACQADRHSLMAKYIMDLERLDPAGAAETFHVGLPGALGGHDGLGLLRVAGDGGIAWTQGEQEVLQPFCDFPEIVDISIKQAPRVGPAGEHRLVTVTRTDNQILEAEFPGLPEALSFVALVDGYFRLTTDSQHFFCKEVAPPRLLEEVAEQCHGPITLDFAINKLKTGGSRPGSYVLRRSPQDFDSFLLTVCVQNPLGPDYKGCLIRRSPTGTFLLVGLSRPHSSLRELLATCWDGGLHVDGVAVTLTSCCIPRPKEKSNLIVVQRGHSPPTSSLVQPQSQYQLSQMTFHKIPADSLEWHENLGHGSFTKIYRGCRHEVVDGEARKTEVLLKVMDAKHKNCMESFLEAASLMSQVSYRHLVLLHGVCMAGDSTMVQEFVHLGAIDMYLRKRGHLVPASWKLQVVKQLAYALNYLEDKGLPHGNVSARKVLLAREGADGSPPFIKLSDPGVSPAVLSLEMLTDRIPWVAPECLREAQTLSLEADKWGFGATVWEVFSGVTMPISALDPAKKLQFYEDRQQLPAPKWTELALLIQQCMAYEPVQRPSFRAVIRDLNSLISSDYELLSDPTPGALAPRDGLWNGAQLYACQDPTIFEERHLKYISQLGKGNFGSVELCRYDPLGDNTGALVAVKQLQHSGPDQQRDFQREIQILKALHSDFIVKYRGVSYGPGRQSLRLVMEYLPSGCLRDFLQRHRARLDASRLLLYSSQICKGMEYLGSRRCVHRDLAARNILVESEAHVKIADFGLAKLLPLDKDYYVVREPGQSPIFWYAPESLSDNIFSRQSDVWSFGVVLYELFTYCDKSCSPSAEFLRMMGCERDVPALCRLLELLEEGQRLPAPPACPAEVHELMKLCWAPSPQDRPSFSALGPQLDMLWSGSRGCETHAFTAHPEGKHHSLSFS
The essentials: as §1

For test [4], the target named is T3, 140 purified human kinases (Homo sapiens, UniProt Q9UHD2).
T3 sequence (Q9UHD2 1-729): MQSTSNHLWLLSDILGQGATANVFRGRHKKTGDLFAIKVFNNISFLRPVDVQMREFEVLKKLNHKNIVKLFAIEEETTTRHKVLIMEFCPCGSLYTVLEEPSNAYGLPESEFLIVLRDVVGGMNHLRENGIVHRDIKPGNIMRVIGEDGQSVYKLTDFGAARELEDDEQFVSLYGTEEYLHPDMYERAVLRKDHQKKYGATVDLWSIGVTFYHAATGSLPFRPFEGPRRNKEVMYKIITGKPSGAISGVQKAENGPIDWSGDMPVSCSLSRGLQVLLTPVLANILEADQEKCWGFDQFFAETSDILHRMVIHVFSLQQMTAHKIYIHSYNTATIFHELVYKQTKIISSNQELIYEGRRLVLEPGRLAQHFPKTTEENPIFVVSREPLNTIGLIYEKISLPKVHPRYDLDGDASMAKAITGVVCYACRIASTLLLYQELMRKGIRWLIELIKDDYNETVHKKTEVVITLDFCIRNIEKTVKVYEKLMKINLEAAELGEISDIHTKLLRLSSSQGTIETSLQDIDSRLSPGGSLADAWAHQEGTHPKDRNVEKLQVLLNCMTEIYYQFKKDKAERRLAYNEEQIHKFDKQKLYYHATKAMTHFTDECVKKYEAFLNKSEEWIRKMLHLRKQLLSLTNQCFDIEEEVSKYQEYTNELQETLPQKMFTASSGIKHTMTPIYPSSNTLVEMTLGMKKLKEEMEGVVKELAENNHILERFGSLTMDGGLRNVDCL
The essentials: as §1

Where “and” joins values, the source holds several entries; their conditions need not be identical. Equal values may be shown once.

On to `[Cu+2].[Cu+2].[Cu+2].c1ccc(-c2csc(NCCN(CCNc3nc(-c4ccccn4)cs3)CCNc3nc(-c4ccccn4)cs3)n2)nc1.c1ccc(-c2csc(NCCN(CCNc3nc(-c4ccccn4)cs3)CCNc3nc(-c4ccccn4)cs3)n2)nc1` [[L2Cu3]6+], for which the “% Inhibition Run 1” value in test [1] (CHK1) was 45.6%; in test [2], -10.1%; in test [3] (JAK3), 39.3%; in test [4] (TBK1), 60.3%. The “% Inhibition Run 2” value is reported as 41.5% in test [1] (CHK1), -8.9% in test [2], 44.6% in test [3] (JAK3) and 64% in test [4] (TBK1). In addition, the “% Inhibition, Mean” value in test [1] (CHK1) is 44%; in test [2] it was -9.5%; in test [3] (JAK3), 42%; in test [4] (TBK1), 62%. Besides, the mean % activity worked out at 56% in test [1] (CHK1), 110% in test [2], 58% in test [3] (JAK3) and 38% in test [4] (TBK1). In addition, the “% activity” value was determined as 54.4% in test [1] (CHK1, Run 1); 58.5% in test [1] (CHK1, Run 2); 110.1% in test [2] (Run 1); 108.9% in test [2] (Run 2); 60.7% in test [3] (JAK3, Run 1); 55.4% in test [3] (JAK3, Run 2). Besides, the “% activity” value in test [4] (TBK1, Run 1) was found to be 39.7%; in test [4] (TBK1, Run 2) it was 36%. In addition, the “% Activation, Mean value” in test [2] was determined as 9.5%. In addition, the “% Activity Run 1” value in test [2] (10 µM) is on record as 110.10%. In addition, in test [2] (10 µM), the “% Activity Run 2” value was 108.90%.
Consider `CC(=O)[O-].CC(=O)[O-].CC(=O)[O-].CC(=O)[O-].CC(=O)[O-].CC(=O)[O-].[Zn+2].[Zn+2].[Zn+2].c1ccc(-c2csc(NCCN(CCNc3nc(-c4ccccn4)cs3)CCNc3nc(-c4ccccn4)cs3)n2)nc1.c1ccc(-c2csc(NCCN(CCNc3nc(-c4ccccn4)cs3)CCNc3nc(-c4ccccn4)cs3)n2)nc1` [[L2Zn3]6+], for which the “% Inhibition, Mean” value in test [1] (CHK1) turned out to be 17%; in test [2], 1.8%; in test [3] (JAK3), 17%; in test [4] (TBK1), 13%. In test [1] (CHK1), the “% Inhibition, Run 1 / Run 2” value was 18% and 16%. Also, the mean % activity was 83% in test [1] (CHK1), 98% in test [2], 83% in test [3] (JAK3) and 87% in test [4] (TBK1). Further, the “% activity” value in test [1] (CHK1, duplicate runs) was 82% and 84%; in test [2] (duplicate runs), 93% and 103%; in test [3] (JAK3, duplicate runs), 66% and 99%; in test [4] (TBK1, duplicate runs), 81% and 93%.
